# Calls of active or inactive are those of the source. The rule behind the calls is not given here.
# Columns and labels:
# [1] = target: L-type calcium channel, dihydropyridine site (Cav1.2 alpha-1C) (Homo sapiens, UniProt Q13936); assay: Inhibition of Calcium Channel L-Type, Dihydropyridine at 10 µM in the Eurofins-Panlabs radioligand binding assay (Eurofins_assay_214600); set-up: ligand concentration 0.1 nM, non-specific ligand with concentration 1 µM Nitrendipine, incubation time 90 min, incubation temperature 25 °C; conditions: Wistar, rat, rat cerebral cortex preparation, probe [3H] Nitrendipine; compound concentration 10 uM; target entry is the homologue from another species
# [2] = target: Prostaglandin E2 receptor EP4 subtype (Homo sapiens) (UniProt P35408); assay: Inhibition of Prostanoid EP4 at 10 µM in the Eurofins-Panlabs radioligand binding assay (Eurofins_assay_268420); set-up: ligand concentration 1 nM; conditions: Compound concentration 10.0 uM
# [3] = target: Receptor-interacting serine/threonine-protein kinase 1 (Homo sapiens, UniProt Q13546); assay: TR-FRET (human RIPK1)
# Activin receptor type-1 = Activin receptor type-1 (Homo sapiens, UniProt Q04771); assay: ALK2(ACV1LGF1) Takeda global kinase panel
# Aurora kinase A = Aurora kinase A (Homo sapiens, UniProt O14965); assay: AurA [Aur2(AURALGF1)] Takeda global kinase panel
# [4] = target: Bone morphogenetic protein receptor type-1A (Homo sapiens, UniProt P36894); assay: BMPR1A(BM1APHRG) Takeda global kinase panel
# [5] = target: Cyclin-dependent kinase 18 (Homo sapiens, UniProt Q07002); assay: PCTAIRE3(CD18SGS1) Takeda global kinase panel
# [6] = target: Serine/threonine-protein kinase Chk1 (Homo sapiens, UniProt O14757); assay: CHK1(CHE1CGP1) Takeda global kinase panel
# [7] = target: Serine/threonine-protein kinase Chk2 (Homo sapiens, UniProt O96017); assay: CHK2(CHE2LGY1) Takeda global kinase panel
# [8] = target: Dual specificity protein kinase CLK3 (Homo sapiens, UniProt P49761); assay: CLK3(CLK3LGY1) Takeda global kinase panel
# [9] = target: Macrophage colony-stimulating factor 1 receptor (Homo sapiens, UniProt P07333); assay: FmS [CSFR(CSF1LGC1)] Takeda global kinase panel
# [10] = target: Dual specificity tyrosine-phosphorylation-regulated kinase 2 (Homo sapiens, UniProt Q92630); assay: DYRK2(DYR2LGY1) Takeda global kinase panel
# [11] = target: Epidermal growth factor receptor (Homo sapiens, UniProt P00533); assay: EGFR(EGFRMGB1) Takeda global kinase panel
# [12] = target: Eukaryotic translation initiation factor 2-alpha kinase 3 (Homo sapiens, UniProt Q9NZJ5); assay: PERK [PEK(EIK3CGQ1)] Takeda global kinase panel
# Ephrin type-B receptor 2 = Ephrin type-B receptor 2 (Homo sapiens, UniProt P29323); assay: EphB2(EPB2LGY1) Takeda global kinase panel
# Ephrin type-B receptor 3 = Ephrin type-B receptor 3 (Homo sapiens, UniProt P54753); assay: EphB3(EPB3LGRJ) Takeda global kinase panel
# Ephrin type-B receptor 4 = Ephrin type-B receptor 4 (Homo sapiens, UniProt P54760); assay: EphB4(EPB4LGY1) Takeda global kinase panel
# [13] = target: Fibroblast growth factor receptor 4 (Homo sapiens, UniProt P22455); assay: FGFR4(FGF4LGF1) Takeda global kinase panel
# [14] = target: G protein-coupled receptor kinase 6 (Homo sapiens, UniProt P43250); assay: GRK6(GRK6LGP1) Takeda global kinase panel
# [15] = target: Homeodomain-interacting protein kinase 1 (Homo sapiens, UniProt Q86Z02); assay: HIPK1(HIP1LGF1) Takeda global kinase panel
# [16] = target: Inhibitor of nuclear factor kappa-B kinase subunit beta (Homo sapiens, UniProt O14920); assay: IKKbeta(IKBBLHY1) Takeda global kinase panel
# [17] = target: Tyrosine-protein kinase Lck (Homo sapiens, UniProt P06239); assay: Lck(LCK1LGF1) Takeda global kinase panel
# [18] = target: Mitogen-activated protein kinase 1 (Homo sapiens, UniProt P28482); assay: ERK2(MAP1LGY1) Takeda global kinase panel
# [19] = target: Mitogen-activated protein kinase 15 (Homo sapiens, UniProt Q8TD08); assay: ERK7(MP15LGY1) Takeda global kinase panel
# [20] = target: MAP/microtubule affinity-regulating kinase 3 (Homo sapiens, UniProt P27448); assay: MARK3(MAR3LGO5) Takeda global kinase panel
# [21] = target: Tyrosine-protein kinase Mer (Homo sapiens, UniProt Q12866); assay: Mer(MERTLGF1) Takeda global kinase panel
# [22] = target: Phosphorylase b kinase gamma catalytic chain, skeletal muscle/heart isoform (Homo sapiens, UniProt Q16816); assay: PhKgamma1(PHG1LHY1) Takeda global kinase panel
# [23] = target: Serine/threonine-protein kinase PINK1, mitochondrial (Homo sapiens, UniProt Q9BXM7); assay: PINK1(PIN1PHRE) Takeda global kinase panel
# [24] = target: Protein kinase C eta type (Homo sapiens, UniProt P24723); assay: PKCeta(PRKHLGRA) Takeda global kinase panel
# [25] = target: Protein-tyrosine kinase 6 (Homo sapiens, UniProt Q13882); assay: Brk(PTK6LGY1) Takeda global kinase panel
# [26] = target: Receptor-interacting serine/threonine-protein kinase 3 (Homo sapiens, UniProt Q9Y572); assay: RIPK3(RIP3IGRI) Takeda global kinase panel
# TGF-beta receptor type-1 = TGF-beta receptor type-1 (Homo sapiens, UniProt P36897); assay: TGFbetaR1(TGF1LGF1) Takeda global kinase panel
# [27] = target: Serine/threonine-protein kinase TNNI3K (Homo sapiens, UniProt Q59H18); assay: HH498(TNNILGY1) Takeda global kinase panel
# [28] = target: Non-receptor tyrosine-protein kinase TYK2 (Homo sapiens, UniProt P29597); assay: Tyk2(TYK2LGF1) Takeda global kinase panel
# Wee1-like protein kinase = Wee1-like protein kinase (Homo sapiens, UniProt P30291); assay: Wee1(WEE1LGF1) Takeda global kinase panel
# [29] = target: Cyclin-dependent kinase 11A (Homo sapiens, UniProt Q9UQ88); assay: CDK11A(C11ALGS1) Takeda global kinase panel
# [30] = target: 5-hydroxytryptamine receptor 6 (Homo sapiens) (UniProt P50406); conditions: Compound concentration 10.0 uM
# [31] = target: D(2) dopamine receptor (Homo sapiens) (UniProt P14416); conditions: Compound concentration 10.0 uM
# [32] = target: D(3) dopamine receptor (Homo sapiens) (UniProt P35462); conditions: Compound concentration 10.0 uM
# [33] = target: GABA-A receptor; anion channel (Rattus norvegicus) (UniProt O09028+P15431+P18506+P18508+P19969+P20236+P23574+P23576+P28471+P28473+P30191+P62813+P63079+P63138+Q91ZM7+Q9ES14); conditions: Compound concentration 10.0 uM
# [34] = target: Beta-1 adrenergic receptor (Homo sapiens) (UniProt P08588); conditions: Compound concentration 10.0 uM
# [35] = target: Histamine H3 receptor (Homo sapiens) (UniProt Q9Y5N1); conditions: Compound concentration 10.0 uM
# [36] = target: Glucocorticoid receptor (Homo sapiens) (UniProt P04150); conditions: Compound concentration 10.0 uM
# Aurora kinase A, sequence (O14965 whole entry): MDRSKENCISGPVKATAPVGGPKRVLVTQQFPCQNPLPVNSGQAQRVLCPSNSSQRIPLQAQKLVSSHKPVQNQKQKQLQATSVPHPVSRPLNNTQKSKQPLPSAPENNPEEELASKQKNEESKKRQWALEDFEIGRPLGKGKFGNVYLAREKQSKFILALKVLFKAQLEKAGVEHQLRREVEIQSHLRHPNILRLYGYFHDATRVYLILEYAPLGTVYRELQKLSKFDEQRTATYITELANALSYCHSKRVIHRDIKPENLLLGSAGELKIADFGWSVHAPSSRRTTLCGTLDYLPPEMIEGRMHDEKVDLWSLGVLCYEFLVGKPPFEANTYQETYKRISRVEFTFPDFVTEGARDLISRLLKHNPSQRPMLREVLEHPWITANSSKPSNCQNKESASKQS
# L-type calcium channel, dihydropyridine site (Cav1.2 alpha-1C), sequence (Q13936 whole entry): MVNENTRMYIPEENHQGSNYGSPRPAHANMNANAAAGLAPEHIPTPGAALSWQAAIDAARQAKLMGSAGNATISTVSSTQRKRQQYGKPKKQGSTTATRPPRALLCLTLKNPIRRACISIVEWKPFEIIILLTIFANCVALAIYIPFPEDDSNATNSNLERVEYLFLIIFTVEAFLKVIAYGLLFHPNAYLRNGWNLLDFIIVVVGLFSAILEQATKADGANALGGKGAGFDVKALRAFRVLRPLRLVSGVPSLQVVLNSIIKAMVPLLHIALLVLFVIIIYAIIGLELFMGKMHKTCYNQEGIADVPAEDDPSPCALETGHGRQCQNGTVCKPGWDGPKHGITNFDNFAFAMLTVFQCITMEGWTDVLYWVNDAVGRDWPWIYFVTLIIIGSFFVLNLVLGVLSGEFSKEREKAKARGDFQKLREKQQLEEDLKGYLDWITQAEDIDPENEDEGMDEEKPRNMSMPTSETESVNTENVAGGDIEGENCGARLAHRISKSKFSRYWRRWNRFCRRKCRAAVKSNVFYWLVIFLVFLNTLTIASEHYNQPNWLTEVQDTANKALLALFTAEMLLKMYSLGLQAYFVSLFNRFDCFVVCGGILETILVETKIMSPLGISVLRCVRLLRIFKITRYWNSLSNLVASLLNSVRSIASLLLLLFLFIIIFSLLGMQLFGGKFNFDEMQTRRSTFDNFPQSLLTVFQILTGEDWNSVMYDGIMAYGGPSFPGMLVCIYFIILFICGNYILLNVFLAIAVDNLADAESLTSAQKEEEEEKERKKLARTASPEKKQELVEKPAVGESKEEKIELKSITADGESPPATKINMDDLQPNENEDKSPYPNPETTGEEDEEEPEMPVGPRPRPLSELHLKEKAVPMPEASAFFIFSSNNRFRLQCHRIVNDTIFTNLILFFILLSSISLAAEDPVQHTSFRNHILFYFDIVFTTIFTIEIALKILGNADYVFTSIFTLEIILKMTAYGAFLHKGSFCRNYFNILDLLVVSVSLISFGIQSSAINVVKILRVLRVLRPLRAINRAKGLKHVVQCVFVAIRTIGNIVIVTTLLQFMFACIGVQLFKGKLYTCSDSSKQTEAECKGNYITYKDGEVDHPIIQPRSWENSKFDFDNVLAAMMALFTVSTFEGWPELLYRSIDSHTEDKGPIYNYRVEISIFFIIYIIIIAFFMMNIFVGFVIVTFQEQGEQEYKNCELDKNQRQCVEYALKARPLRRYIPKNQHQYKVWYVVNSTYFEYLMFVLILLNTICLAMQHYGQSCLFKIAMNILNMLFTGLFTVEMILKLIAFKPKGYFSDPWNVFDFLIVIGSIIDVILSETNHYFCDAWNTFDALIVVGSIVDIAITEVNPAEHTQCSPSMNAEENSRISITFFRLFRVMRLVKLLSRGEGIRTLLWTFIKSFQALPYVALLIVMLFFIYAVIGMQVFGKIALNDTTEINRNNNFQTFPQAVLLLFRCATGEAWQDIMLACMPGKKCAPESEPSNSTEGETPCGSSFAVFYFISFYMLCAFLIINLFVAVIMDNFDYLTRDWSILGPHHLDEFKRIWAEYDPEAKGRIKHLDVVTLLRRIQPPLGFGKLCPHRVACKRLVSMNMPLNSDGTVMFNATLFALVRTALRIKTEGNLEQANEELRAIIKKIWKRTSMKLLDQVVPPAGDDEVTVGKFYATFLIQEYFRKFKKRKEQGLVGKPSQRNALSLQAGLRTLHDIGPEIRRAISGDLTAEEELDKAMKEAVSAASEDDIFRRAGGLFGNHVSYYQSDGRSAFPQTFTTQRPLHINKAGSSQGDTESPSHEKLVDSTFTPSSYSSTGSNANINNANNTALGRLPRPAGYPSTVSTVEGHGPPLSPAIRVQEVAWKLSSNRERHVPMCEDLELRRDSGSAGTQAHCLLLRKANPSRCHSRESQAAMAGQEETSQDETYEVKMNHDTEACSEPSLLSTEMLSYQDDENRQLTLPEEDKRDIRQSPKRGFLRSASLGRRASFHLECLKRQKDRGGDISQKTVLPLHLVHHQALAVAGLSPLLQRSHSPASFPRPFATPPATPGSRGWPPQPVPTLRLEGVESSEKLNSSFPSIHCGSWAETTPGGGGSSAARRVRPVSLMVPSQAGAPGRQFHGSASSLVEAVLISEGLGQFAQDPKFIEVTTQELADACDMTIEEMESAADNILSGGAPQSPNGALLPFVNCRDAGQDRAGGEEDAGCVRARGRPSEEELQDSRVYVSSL
# Prostaglandin E2 receptor EP4 subtype (Homo sapiens), sequence (P35408 whole entry): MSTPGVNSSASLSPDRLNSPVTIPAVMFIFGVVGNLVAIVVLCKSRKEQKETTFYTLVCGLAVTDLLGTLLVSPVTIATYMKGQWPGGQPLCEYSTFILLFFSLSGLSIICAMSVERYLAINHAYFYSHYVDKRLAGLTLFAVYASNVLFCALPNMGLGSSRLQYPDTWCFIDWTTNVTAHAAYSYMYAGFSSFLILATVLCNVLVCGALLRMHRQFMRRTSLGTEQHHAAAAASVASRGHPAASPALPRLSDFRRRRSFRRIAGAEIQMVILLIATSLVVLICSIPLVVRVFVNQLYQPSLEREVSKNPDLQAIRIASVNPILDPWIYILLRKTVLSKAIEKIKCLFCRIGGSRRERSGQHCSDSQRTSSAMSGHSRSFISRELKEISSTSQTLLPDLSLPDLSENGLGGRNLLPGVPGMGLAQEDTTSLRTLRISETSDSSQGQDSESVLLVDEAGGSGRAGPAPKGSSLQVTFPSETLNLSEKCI
# Histamine H3 receptor (Homo sapiens), sequence (Q9Y5N1 whole entry): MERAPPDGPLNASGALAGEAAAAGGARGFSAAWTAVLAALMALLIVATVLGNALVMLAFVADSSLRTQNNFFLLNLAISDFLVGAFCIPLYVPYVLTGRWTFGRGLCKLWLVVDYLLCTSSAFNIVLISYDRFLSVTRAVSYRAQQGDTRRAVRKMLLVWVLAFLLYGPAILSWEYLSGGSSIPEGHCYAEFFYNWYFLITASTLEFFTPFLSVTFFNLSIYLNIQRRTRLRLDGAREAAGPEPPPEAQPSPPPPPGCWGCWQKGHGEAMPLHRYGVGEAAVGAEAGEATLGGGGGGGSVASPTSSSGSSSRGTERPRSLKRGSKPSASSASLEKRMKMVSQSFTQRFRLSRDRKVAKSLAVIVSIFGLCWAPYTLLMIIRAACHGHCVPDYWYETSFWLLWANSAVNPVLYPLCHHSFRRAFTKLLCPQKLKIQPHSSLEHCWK
# Protein-tyrosine kinase 6, sequence (Q13882 whole entry): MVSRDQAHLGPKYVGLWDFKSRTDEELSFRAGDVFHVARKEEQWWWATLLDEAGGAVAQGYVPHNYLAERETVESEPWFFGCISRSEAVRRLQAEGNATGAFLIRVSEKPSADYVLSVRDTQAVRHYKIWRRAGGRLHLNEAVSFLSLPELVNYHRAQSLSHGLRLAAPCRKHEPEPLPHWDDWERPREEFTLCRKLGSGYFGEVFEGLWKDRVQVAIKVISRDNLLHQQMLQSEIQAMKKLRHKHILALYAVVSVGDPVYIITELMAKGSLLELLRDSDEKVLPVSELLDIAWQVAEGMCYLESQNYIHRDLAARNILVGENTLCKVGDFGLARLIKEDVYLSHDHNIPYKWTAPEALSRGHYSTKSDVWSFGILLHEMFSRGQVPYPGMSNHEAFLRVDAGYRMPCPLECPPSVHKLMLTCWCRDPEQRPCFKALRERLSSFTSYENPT
# Wee1-like protein kinase, sequence (P30291 whole entry): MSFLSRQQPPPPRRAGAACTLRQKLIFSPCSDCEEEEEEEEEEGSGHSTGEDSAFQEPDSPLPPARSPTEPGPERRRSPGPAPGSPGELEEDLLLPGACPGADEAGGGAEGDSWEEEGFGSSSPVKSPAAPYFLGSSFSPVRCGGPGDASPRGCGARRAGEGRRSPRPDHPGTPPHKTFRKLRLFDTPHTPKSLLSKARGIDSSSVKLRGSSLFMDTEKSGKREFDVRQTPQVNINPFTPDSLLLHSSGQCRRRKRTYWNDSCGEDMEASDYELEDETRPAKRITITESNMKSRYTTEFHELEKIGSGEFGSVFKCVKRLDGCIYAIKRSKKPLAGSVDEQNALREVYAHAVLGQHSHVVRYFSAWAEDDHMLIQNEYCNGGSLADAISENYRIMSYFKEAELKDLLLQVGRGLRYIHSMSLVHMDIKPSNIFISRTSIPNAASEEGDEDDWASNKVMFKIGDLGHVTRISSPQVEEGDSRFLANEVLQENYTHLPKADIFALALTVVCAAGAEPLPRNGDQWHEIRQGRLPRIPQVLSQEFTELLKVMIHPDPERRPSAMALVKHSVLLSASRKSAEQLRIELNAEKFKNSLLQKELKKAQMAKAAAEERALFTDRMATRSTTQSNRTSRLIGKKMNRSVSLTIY
# D(3) dopamine receptor (Homo sapiens), sequence (P35462 whole entry): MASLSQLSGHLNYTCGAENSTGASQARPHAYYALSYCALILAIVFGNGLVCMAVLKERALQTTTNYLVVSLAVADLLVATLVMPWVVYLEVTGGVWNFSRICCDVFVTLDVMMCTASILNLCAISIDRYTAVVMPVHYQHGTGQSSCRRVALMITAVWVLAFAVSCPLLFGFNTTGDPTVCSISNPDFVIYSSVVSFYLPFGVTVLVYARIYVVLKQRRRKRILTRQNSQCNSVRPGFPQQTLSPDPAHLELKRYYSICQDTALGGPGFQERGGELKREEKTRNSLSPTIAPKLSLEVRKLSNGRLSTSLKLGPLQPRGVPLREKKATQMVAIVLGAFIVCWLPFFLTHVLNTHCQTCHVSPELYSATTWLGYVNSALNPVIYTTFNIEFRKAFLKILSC
compound,measurement,setting,value
CN1C(=O)[C@@H](N2CCc3c(nn(Cc4ccccc4)c3Br)C2=O)COc2ccccc21 [TP-030-2],"inhibition at 90 min, 10 µM",[1],29% (not active)
same,inhibition,[2],-2%
same,Ki,[3],0.43 nM (active)
same,IC50,Activin receptor type-1,1000 nM
same,IC50,Aurora kinase A,1000 nM
same,IC50,[4],1000 nM
same,IC50,[5],1000 nM
same,IC50,[6],1000 nM
same,IC50,[7],1000 nM
same,IC50,[8],1000 nM
same,IC50,[9],1000 nM
same,IC50,[10],1000 nM
same,IC50,[11],1000 nM
same,IC50,[12],1000 nM
same,IC50,Ephrin type-B receptor 2,1000 nM
same,IC50,Ephrin type-B receptor 3,1000 nM
same,IC50,Ephrin type-B receptor 4,1000 nM
same,IC50,[13],1000 nM
same,IC50,[14],1000 nM
same,IC50,[15],1000 nM
same,IC50,[16],1000 nM
same,IC50,[17],1000 nM
same,IC50,[18],1000 nM
same,IC50,[19],1000 nM
same,IC50,[20],1000 nM
same,IC50,[21],1000 nM
same,IC50,[22],1000 nM
same,IC50,[23],1000 nM
same,IC50,[24],1000 nM
same,IC50,[25],1000 nM
same,IC50,[26],1000 nM
same,IC50,TGF-beta receptor type-1,1000 nM
same,IC50,[27],1000 nM
same,IC50,[28],1000 nM
same,IC50,Wee1-like protein kinase,1000 nM
same,IC50,[29],1000 nM
same,inhibition,[30],8.15%
same,inhibition,[31],-5.95%
same,inhibition,[32],3.31%
same,inhibition,[33],33.9%
same,inhibition,[34],-4%
same,inhibition,[35],5%
same,inhibition,[36],10%
